Experiments:
[1] = system: Nicotiana tabacum var. Samsun; experiment: Conditional female sterility of transgenic tobacco expressing mutant D-amino acid oxidase in female floral tissue; format: in vivo; details: for seed production after treatment / pollen production after treatment: transgenic tobacco; for seed production after treatment: female floral promoter-DAMOX, foliar spray, root drench or bud application; for pollen production after treatment: same treatment conditions
Protocol: Tobacco leaf discs are transformed with the recombinant binary vectors using methods similar to those described in Horsch et al (1985) Science, 227, 1229-1231. Many variations of the method may be used. The binary vector can be transformed into, for example, Agrobacterium tumefaciens strain LBA 4404 using the freeze thaw method of transformation. Tobacco transformation and whole plant regeneration is performed using Nicotiana tabacum var. Samsun according to protocols described by Draper et al (Plant Genetic Transformation, Blackwell Sci. Pub. 1989). Transformation events are selected on MS-media containing kanamycin or other suitable antibiotic. The presence of integrated transgenes is confirmed by PCR. Plants are regenerated and allowed to reach maturity and selfed on to produce seed. Northern and/or Western analysis is used to confirm tissue-specific expression of the D-amino acid oxidase genes. The selected plants are self-fertile but have the condition of conditional female sterility. Seeds of the T1 generation are planted out. Once plantlets have grown to a sufficient size they are tested by PCR for the presence of transgene. PCR positive plants are transferred to the greenhouse. These plants are fully fertile in the absence of exogenously applied proherbicide. A subset of these (putatively) conditionally sterile plants are treated with D-phosphinothricin or D-aspartate or D-glutamate in various amounts and at varying growth stages. Such treatments are carried out on the T1 plants confirmed as PCR positive for the D-amino acid oxidase gene, or, equally, such treatments are carried out directly on plants of the To generation (which are vegetatively cloned so that untreated clones of each event may be set aside for seed production). […] For example these amino acids are pure D enantiomers or, alternatively, are DL racemates. For example, they are applied as a foliar spray, prior to or during the early stages of flower formation, at rates usually between 0.25 and 20 kg/ha. Amino acids which may crystallise out of solution on the leaves following foliar application may be redissolved and remobilised for leaf uptake by further applications of water as a spray mist. Amino acids are, for example, also applied as a root drench and optionally, further applied as ˜50 ul of a 10-200 mM solution flooded directly into the buds of emerging florets. Pollen from the treated plants is collected and viability is tested. […] Controls include both transgenic and non-transgenic plants and are grown under identical conditions and under an identical regime of physical treatments except that treatment solutions are either water or an equivalent concentration of pure L-amino acid.
In one variant of the method, the amino acid applied is racemic DL phosphinothricin. In this case, the DNA construct used for transformation comprises, in addition to the DNA sequence encoding a D-amino acid oxidase under operable expression control of a tissue specific female floral promoter region such as ‘stig 1’, also a DNA sequence (EMBL: A02774) a […] under operable control of a promoter region such as the region 5′ of the translational start of the plastocyanin gene of the Pisum sativum plastocyanin gene (EMBL accession number X16082). For example, the construct is the same as depicted in FIG. 1.
The plastocyanin promoter region provides for preferential expression in the green tissues of the plant. […] Furthermore, in the absence of the heterologous D-amino acid oxidase being co-expressed in the floral tissues, the plastocyanin/PAT gene combination provides essentially complete reproductive tolerance with no significant loss of yield despite the PAT expression level being low or non-existent in many of the critical floral tissues when expressed under control of this promoter region. […]

D-amino acid oxidase = experiment: Control experiments: oxidation of pure L and pure D form of phosphinothricin by D-amino acid oxidase; format: biochemical, Rhodotorula gracilis; details: oxygen electrode
Protocol: Approximately 7 g wet weight of cells is washed in water. The cells are resuspended in an equal volume of 50 mM/Mops/KOH buffer at pH 7.0 containing 2 mM EDTA, 2 mM DTT and 0.01 mM FAD. Cells are evenly suspended using a glass homogeniser and then disrupted using a one shot head in the Constant Systems (BudBrooke Rd, Warwick U.K.) Basic Z cell disrupter at 13500 psi. The crude extract is kept cold (−4° C.) centrifuged at 30,000 gav for 1 h and the pellet discarded. Some of the extract protein is run out on an SDS PAGE gel stained with Coomassie Blue and, through side by side comparison with similarly prepared extracts of cells containing only ‘empty’ pET vector it is estimated that 2-50% of the total soluble protein in the extract is D-amino acid oxidase. Some of the extract protein is exchanged into 50 mM Mops/KOH buffer at pH 7.0 containing 0.01 mM FAD. This is diluted with the same buffer in a standard oxygen electrode cell (calibrated at 25° C. between zero and a saturated concentration of oxygen). Optionally, the D-amino acid oxidase is further purified using ion-exchange, phenyl sepharose, fractional ammonium sulphate precipitation and gel filtration. […] Final amounts of protein in the cell vary up to 5 mg depending on the level of activity being measured. Rates of oxygen consumption (after substraction of any drift in the bases line) are measured.

wheat = experiment: Reproductive tolerance of wheat containing PAT gene under barley plastocyanin promoter; format: in vivo; details: wheat with PAT under barley plastocyanin promoter; rates of at least 2 kg/ha
Description: The current invention provides a method of overcoming the problem of enabling the use of a cheap commercial herbicide, DL phosphinothricin, as both weed control and hybridising agent in the production of hybrid cereals and which method, furthermore, provides resultant hybrid cereals or rice in which DL phosphinothricin (or L-phosphinothricin) can be safely used for weed control without substantial loss of yield. As a yet further benefit, selfed seed from the F1 generation which may later arise as volunteers in subsequent crops will be easier to manage since they, themselves, will generally be sterile if sprayed with controlling amounts of DL phosphinothricin. The same holds for the progeny of pollen outcrossing from the F1 plants to weeds (e.g red rice) or other cereals. The current invention provides genes and enzymes that convert a non-phytotoxic component, D-phosphinothricin, of a commercial herbicide formulation DL phosphinothricin, into the active L form. The PAT gene which converts L-phosphinothricin to N-acetyl L-phosphinothricin is known already and is used commercially to provide tolerance to DL phosphinothricin in crops. […]

Tobacco plants = experiment: Conditional male sterility of transgenic tobacco expressing mutant D-amino acid oxidase in male floral tissue; format: in vivo; details: rates between 250 g/ha and 5 kg/ha; TAP1 or TA29-DAMOX plus plastocyanin-PAT tobacco
Protocol: Tobacco plant material is transformed, via Agrobacterium, with vector and transgenic plants are regenerated in a similar manner to that described in the previous example. The plants produced are self-fertile but are conditionally male sterile. Seeds of the T1 generation are planted out into soil. Once plantlets have grown to a sufficient size they are tested by PCR for the presence of transgene. PCR positive plants are transferred to the greenhouse. These plants are fully fertile in the absence of exogenously applied proherbicide. A subset of these putatively conditionally sterile T1 plants, or, alternatively plantlets of T0 ‘events’ (direct regenerants from transformation) are treated with D-phosphinothricin or D-aspartate or D-glutamate in various amounts and at varying growth stages. Where To plants are treated they are vegetatively cloned so that untreated siblings of the events are set aside for seed production. […] For example these amino acids are pure D enantiomers or, alternatively, are DL racemates. For example, they are applied as a foliar spray, prior to or during the early stages of flower formation, at rates usually between 0.25 and 20 kg/ha. Amino acids which may crystallise out of solution on the leaves following foliar application may be redissolved and remobilised for leaf uptake by further applications of water as a spray mist. […]

[2] = rates between 250 g/ha and 5 kg/ha, stig1-DAMOX plus plastocyanin-PAT tobacco

With `N[C@H](CC(=O)O)C(=O)O` [D-aspartate] the “seed production after treatment” value [1] was “relatively little or no seed” and the “pollen production after treatment” value [1] was “near normal levels of viable pollen”.

For `N[C@H](CCC(=O)O)C(=O)O` [D-glutamate], the “seed production after treatment” value [1] was “relatively little or no seed” and the “pollen production after treatment” value [1] was “near normal levels of viable pollen”.

In the case of `CP(=O)(O)CC[C@@H](N)C(=O)O` [D-phosphinothricin], the “oxidation of pure enantiomer of phosphinothricin” value (D-amino acid oxidase) was “up to twice the rate that the DL racemate is”, the “seed production after treatment” value [1] was “relatively little or no seed” and the “pollen production after treatment” value [1] was “near normal levels of viable pollen”.

`CP(=O)(O)CCC(N)C(=O)O` (stereo not drawn) [DL phosphinothricin] was tested, and the “reproductive tolerance to application” value (wheat) was “substantially reproductively tolerant”, the “male fertility of treated plants” value (Tobacco plants) was “rendered conditionally male sterile” and the “visible damage of treated plants” value (Tobacco plants) was “not visibly damaged”. The “reproductive tolerance to the herbicide” value ([1]; plastocyanin promoter/PAT gene, rates in excess of 2 kg/ha) was “substantially complete reproductive tolerance”, the “female fertility of treated plants” value [1, 2] was “rendered conditionally female sterile” and the “visible damage of treated plants” value [1, 2] was “not visibly damaged”.

With `CP(=O)(O)CC[C@H](N)C(=O)O` [pure L-form, L-phosphinothricin] the “oxidation of pure enantiomer of phosphinothricin” value (D-amino acid oxidase) was “not oxidised at detectable levels”.

Reference: patent US20100275328A1, “METHOD OF SELECTIVELY PRODUCING MALE OR FEMALE STERILE PLANTS” (Syngenta Limited, priority 2003, published 2010)
